We go through 3 molecules from patent US10287617B2, “Methods for in vitro—in vivo efficacy determination” (COLORADO STATE UNIVERSITY RESEARCH FOUNDATION, priority 2014, dated 2019).

Values joined by “and” are separate entries in the source; they are usually repeats but may differ in a detail not shown here. Identical values can stand only once.

The test system of experiment [1] is M. tuberculosis Erdman. It is filed as in vivo. Conditions: SB-P17G-A20 50 mg/kg IP bid, INH 20 mg/kg IP qd, days 5 to 14 post-infection.
Experiment [2] relates to M. tuberculosis H37Rv. The class given is cell-based. Conditions: SB-P17G-A20 with rifampicin.
Experiment [3] concerns M. tuberculosis H37Rv. It is filed as cell-based, Mycobacterium tuberculosis. The following applies: 2×10^9 cells plated on 1.6 μg/mL (10 times MIC).

As to `NNC(=O)c1ccncc1` [Isoniazid, reference compound], in experiment [1], the “reduction in bacterial load in the lungs” value was “below the level of detection” and the “reduction in bacterial load in the spleen” value (shortened to “reduction … in the spleen”) is reported as “below the level of detection”.
For `CN(C)c1cc2nc(C3CCCCC3)[nH]c2cc1NC(=O)c1ccc(OC(F)(F)F)cc1` [SB-P17G-A20], in experiment [2], the “enhancement of activity in the presence of the other drug” value was 2-4 fold and the ΣFIC stood at 0.75. Also, in experiment [1], the “reduction in bacterial load in the lungs” value was 1.73±0.24 log10 CFU and 1.73 log10 CFU; the “reduction … in the spleen” value was 2.68 log10 CFU and 2.68±0.48 log10 CFU. The spontaneous resistant mutants entry in experiment [3] is “No mutants where observed”.
In the case of `CCCCOC(=O)Nc1cc2nc(C3CCCCC3)[nH]c2cc1N(C)C` [SB-P17G-C2], in experiment [1], the “reduction in bacterial load in the lungs” value is “no significant reduction” and the “reduction … in the spleen” value was “no significant reduction”.
